This is an account of results in patent publication US20050124498A1, “Halobenzyl substituted phenylaceto esters and amides and use thereof for prevention of harmful organisms” (priority 2002, published 2005).

Data set [1] relates to army worm (Spodoptera frugiperda). Kind of data set: Spodoptera frugipereda test/synthetic feed. Format: in vivo. The following applies: larva (L3) on synthetic feed, concentration of active compound 500 ppm. How it is done:
Spodoptera frugipereda test/synthetic feed [table] To produce a suitable preparation of active compound, 1 part by weight of active compound is mixed with the stated amount of solvent and the stated amount of emulsifier, and the concentrate is diluted with emulsifier-containing water to the desired concentration. A stated amount of the preparation of active compound of the desired concentration is pipetted onto a standardized amount of synthetic feed. In 6 replications, in each case one larva (L3) of the army worm (Spodoptera frugiperda) is placed onto the feed. After the desired period of time, the kill in % is determined. 100% means that all animals have been killed; 0% means that none of the animals have been killed.

In a further data set the test system is Sphaerotheca fuliginea. Kind of data set: Sphaerotheca test (cucumber)/protective. It counts as in vivo. As to conditions: Podosphaera fuliginea, 168 h, protective, application rate 100 g/ha, evaluation 7 days after inoculation, read-out: efficacy. How it is done:
(§1) Sphaerotheca test (cucumber)/protective [table] To produce a suitable preparation of active compound, 1 part by weight of active compound is mixed with the stated amounts of solvent and emulsifier, and the concentrate is diluted with water to the desired concentration. To test for protective activity, young plants are sprayed with the preparation of active compound at the stated application rate. After the spray coating has dried on, the plants are inoculated with an aqueous spore suspension of Sphaerotheca fuliginea. The plants are then placed in a greenhouse at about 23° C. and about 70% relative atmospheric humidity.

The next data set is described as follows: physchem. As to conditions: pH 2, log P (pH 2).
Data set [2] deals with apple scab pathogen Venturia inaequalis. Kind of data set: Venturia test (apple)/protective. It counts as in vivo. The following applies: 240 h, protective, application rate 100 g/ha, evaluation 10 days after inoculation, read-out: efficacy. How it is done: Venturia test (apple)/protective […] To produce a suitable preparation of active compound, 1 part by weight of active compound is mixed with the stated amounts of solvent and emulsifier, and the concentrate is diluted with water to the desired concentration. To test for protective activity, young plants are sprayed with the preparation of active compound at the stated application rate. After the spray coating has dried on, the plants are inoculated with an aqueous conidia suspension of the apple scab pathogen Venturia inaequalis and then remain in an incubation cabin at about 20° C. and 100% relative atmospheric humidity for 1 day. The plants are then placed in a greenhouse at about 21° C. and a relative atmospheric humidity of about 90%.

The test system of data set [3] is Erysiphe graminis f.sp. hordei. Nature of the data set: Erysiphe test (barley)/protective. It counts as in vivo. As to conditions: Blumeria graminis, 168 h, protective, application rate 500 g/ha, evaluation 7 days after inoculation, read-out: efficacy. As for the experimental part: Erysiphe test (barley)/protective [table] To produce a suitable preparation of active compound, 1 part by weight of active compound is mixed with the stated amounts of solvent and emulsifier, and the concentrate is diluted with water to the desired concentration. To test for protective activity, young plants are sprayed with the preparation of active compound at the stated application rate. After the spray coating has dried on, the plants are dusted with spores of Erysiphe graminis f.sp. hordei. The plants are placed in a greenhouse at a temperature of about 20° C. and a relative atmospheric humidity of about 80% to promote the development of mildew pustules.

Data set [4] relates to apple mildew pathogen Podosphaera leucotricha. Nature of the data set: Podosphaera test (apple)/protective. Format: in vivo. As to conditions: 240 h, protective, application rate 100 g/ha, evaluation 10 days after inoculation, read-out: efficacy. How it is done:
as §1, with “Podosphaera” for “Sphaerotheca”, “(apple)/protective” for “(cucumber)/protective”, “the apple mildew pathogen Podosphaera leucotricha.” for “Sphaerotheca fuliginea.”

Consider `CO/N=C(/C(=O)OC)c1c(F)cccc1Oc1ncnc(Oc2cccc(Cl)c2C)c1F` [Example 1, methyl {2-[6-(3-chloro-2-methylphenoxy)-5-fluoropyrimidin-4-yloxy]-6-fluorophenyl}methoxyiminoacetate], for which the kill rate in data set [1] is no less than 98%. Moreover, the figures for the pest or weed control at 100 g/ha (with Sphaerotheca fuliginea; in data set [2]; in data set [4]) were no less than 98%, no less than 97% and no less than 82%, respectively. The compound further came in with a chromatographic logP in the data set “physchem” of 4.23. Further, in data set [3], the pest or weed control at 500 g/ha is no less than 98%.
